US11498923B2 (Merck Sharp & Dohme Corp., priority 2017, dated 2022)

target: T1, human A2a receptor (Homo sapiens, UniProt P29274); assay: A2a receptor competition binding assay (Scintillation Proximity); conditions: membranes from HEK293 cells expressing human A2a receptor; 0.5 nM tritiated ligand; Cheng-Prusoff; read-out: A2a Ki
T1 construct: purchased Perkin-Elmer RBHA2AM400UA; host or cells: HEK293 cells, used as a membrane preparation
Procedure, shortened: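 Ki values were obtained with the Cheng-Prusoff equation from competition curves against 0.5 nM tritiated antagonist, scintillation proximity counting after 1 h room-temperature incubation. Receptor came from HEK293 membranes pretreated with adenosine deaminase; compound final range 3000–0.15 nM, buffer Ca/Mg-free PBS with 10 mM MgCl2.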

T1 sequence (P29274 whole entry): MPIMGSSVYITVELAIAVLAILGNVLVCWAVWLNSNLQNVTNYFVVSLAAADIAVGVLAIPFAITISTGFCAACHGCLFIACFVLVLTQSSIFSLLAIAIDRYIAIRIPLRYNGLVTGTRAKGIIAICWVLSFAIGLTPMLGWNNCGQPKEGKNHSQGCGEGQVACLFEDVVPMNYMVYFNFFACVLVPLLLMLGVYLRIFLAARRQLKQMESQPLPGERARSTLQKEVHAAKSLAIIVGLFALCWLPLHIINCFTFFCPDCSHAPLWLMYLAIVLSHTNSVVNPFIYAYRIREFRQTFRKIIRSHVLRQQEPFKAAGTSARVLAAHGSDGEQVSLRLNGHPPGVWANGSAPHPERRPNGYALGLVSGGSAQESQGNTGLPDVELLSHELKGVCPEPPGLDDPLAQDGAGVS

Ki [nM] | Structure (SMILES)
5.2 | COc1cccc2c1nc(N)n1cc(Cc3cccnc3N3CCOCC3)nc21 [Ex-43, 7-methoxy-2-((2-morpholinopyridin-3-yl)methyl)imidazo[1,2-c]quinazolin-5-amine]
30 | COc1ccnc(C(=O)N2CCC(Cc3cn4c(N)nc5c(F)cccc5c4n3)CC2)c1 [Ex-320, (4-((5-amino-7-fluoroimidazo[1,2-c]quinazolin-2-yl)-methyl)piperidin-1-yl)(4-methoxypyridin-2-yl)methanone]
3.7 | COc1cccc2c1nc(N)n1cc(CN3CCc4ccccc4C3)nc21 [Ex-121, 2-((3,4-dihydroisoquinolin-2(1H)-yl)methyl)-7-methoxyimidazo[1,2-c]quinazolin-5-amine]
7.4 | COc1cccc2c1nc(N)n1cc(Cc3ccnc(N4CCN(C(C)=O)CC4)c3)nc21 [Ex-46, 1-(4-(4-((5-amino-7-methoxyimidazo[1,2-c]quinazolin-2-yl)methyl)pyridin-2-yl)piperazin-1-yl)ethan-1-one]
2.1 | COc1cccc2c1nc(N)n1cc(Cc3c(O)cccc3F)nc21 [Ex-31, 2-((5-amino-7-methoxyimidazo[1,2-c]quinazolin-2-yl)methyl)-3-fluorophenol]
10 | COc1cccc2c1nc(N)n1cc(C(=O)N3CCCC4(C3)OCCO4)nc21 [Ex-231, (5-amino-7-methoxyimidazo[1,2-c]quinazolin-2-yl)(1,4-dioxa-7-azaspiro[4.5]decan-7-yl)methanone]
31 | Nc1nc2c(F)cccc2c2nc(CC3CCN(c4ccc(F)cn4)CC3)cn12 [Ex-319, 5-amino-7-fluoro-2-((1-(5-fluoropyridin-2-yl)piperidin-4-yl)-methyl)imidazo[1,2-c]quinazolin-6-ium 2,2,2-trifluoroacetate]
28 | Nc1nc2c(-c3cnoc3)cccc2c2nc(Cc3ccccc3)cn12 [Ex-156, 2-benzyl-7-(isoxazol-4-yl)imidazo[1,2-c]quinazolin-5-amine]
46 | Nc1nc2c(F)cccc2c2nc(C(=O)N3CCc4ccc(CC(=O)Nc5ccccn5)cc4C3)cn12 [Ex-290, 2-(2-(5-amino-7-fluoroimidazo[1,2-c]quinazoline-2-carbonyl)-1,2,3,4-tetrahydroisoquinolin-7-yl)-N-(pyridin-2-yl)acetamide]
2 | COc1cccc2c1nc(N)n1cc(Cc3cccc4c3CCN(C(=O)CCC(F)(F)F)C4)nc21 [Ex-60, 1-(5-((5-amino-7-methoxyimidazo[1,2-c]quinazolin-2-yl)methyl)-3,4-dihydroisoquinolin-2(1H)-yl)-4,4,4-trifluorobutan-1-one]
13 | COc1cccc2c1nc(N)n1cc(C(=O)N3CCCC4(CCCO4)C3)nc21 (centres unmarked) [Ex-205, (5-amino-7-methoxyimidazo[1,2-c]quinazolin-2-yl)(1-oxa-7-azaspiro[4.5]decan-7-yl)methanone]
> 2200 | COc1ccc(CNc2nc3c(F)cccc3c3nc(C(=O)N4Cc5ccc(Br)cc5C4)cn23)c(OC)c1 [Ex-164, (5-bromoisoindolin-2-yl)(5-((2,4-dimethoxybenzyl)amino)-7-fluoroimidazo[1,2-c]quinazolin-2-yl)methanone]
9 | Nc1nc2c(F)cccc2c2nc(C(=O)NC3CCNc4ccccc43)cn12 (centres unmarked) [Ex-248, 5-amino-7-fluoro-N-(1,2,3,4-tetrahydroquinolin-4-yl)imidazo[1,2-c]quinazoline-2-carboxamide]
2 | COc1c(F)ccc2c1nc(N)n1cc(Cc3ccccc3)nc21 [Ex-11, 2-benzyl-8-fluoro-7-methoxyimidazo[1,2-c]quinazolin-5-amine]
90 | COc1cccc2c1nc(N)n1cc(C(=O)N3CCOC[C@@H]3C)nc21 [Ex-184, (S)-(5-amino-7-methoxyimidazo[1,2-c]quinazolin-2-yl)(3-methylmorpholino) methanone]
47 | Nc1nc2c(F)cccc2c2nc(C(=O)N3CCc4ccc(NC(=O)c5ccccn5)cc4C3)cn12 [Ex-291, N-(2-(5-amino-7-fluoroimidazo[1,2-c]quinazoline-2-carbonyl)-1,2,3,4-tetrahydroisoquinolin-7-yl)picolinamide]
5.1 | Nc1nc2c(F)cccc2c2nc(Cc3ccc4c(c3)CN(Cc3ccccc3)C4)cn12 [Ex-65, 2-((2-benzylisoindolin-5-yl)methyl)-7-fluoroimidazo[1,2-c]quinazolin-5-amine]
3.8 | COc1cccc2c1nc(N)n1cc(CCc3ccccc3)nc21 [Ex-102, 7-methoxy-2-phenethylimidazo[1,2-c]quinazolin-5-amine]
7.8 | COc1cccc2c1nc(N)n1cc(C(=O)N3CCC[C@@H]3C(F)(F)F)nc21 [Ex-217, (R)-(5-amino-7-methoxyimidazo[1,2-c]quinazolin-2-yl)(2-(trifluoromethyl)pyrrolidin-1-yl)methanone]
2.3 | Nc1nc2ccccc2c2nc(Cc3ccccc3C(F)(F)F)cn12 [Ex-14, 2-(2-(trifluoromethyl)benzyl)imidazo[1,2-c]quinazolin-5-amine]
150 | COc1cccc2c1nc(N)n1cc(CN3CCN4CCCC[C@@H]4C3)nc21 [Ex-132, (R)-7-methoxy-2-((octahydro-2H-pyrido[1,2-a]pyrazin-2-yl)methyl)imidazo[1,2-c]quinazolin-5-amine]

Ki [nM] | Structure (SMILES)
56 | COc1cccc(CN2CCC(Cc3cn4c(N)nc5c(F)cccc5c4n3)CC2)c1 [Ex-310, 7-fluoro-2-((1-(3-methoxybenzyl)-piperidin-4-yl)-methyl)imidazo-[1,2-c]quinazolin-5-amine]
300 | Nc1nc2c(F)cccc2c2nc(CC3CCN(CCc4ccccc4)CC3)cn12 [Ex-308, 7-fluoro-2-((1-phen-ethylpiperidin-4-yl)-methyl)imidazo[1,2-c]quinazolin-5-amine]
110 | Nc1nc2c(F)cccc2c2nc(C(=O)N3CCC4(CCN(Cc5ccc(F)cc5)C4)C3)cn12 (centres unmarked) [Ex-273, (5-amino-7-fluoroimidazo[1,2-c]quinazolin-2-yl)(7-(4-fluorobenzyl)-2,7-diazaspiro[4.4]nonan-2-yl)methanone]
27 | Nc1nc2c(F)cccc2c2nc(Cc3ccc(-c4cnccn4)cc3)cn12 [Ex-82, 7-fluoro-2-(4-(pyrazin-2-yl)benzyl)imidazo[1,2-c]quinazolin-5-amine]
7.2 | Nc1nc2c(F)cccc2c2nc(C(=O)NCc3cccc(N4CCN(c5ccc(F)cc5F)CC4)c3)cn12 [Ex-252, 5-amino-N-(3-(4-(2,4-difluorophenyl)piperazin-1-yl)benzyl)-7-fluoroimidazo[1,2-c]quinazoline-2-carboxamide]
4.2 | Nc1nc2c(F)cccc2c2nc(Cc3ccccc3CN3CCC(N4CCOCC4)CC3)cn12 [Ex-73]
11 | COc1cccc2c1nc(N)n1cc(C(=O)N3CCC(C(C)C)CC3)nc21 [Ex-196, (5-amino-7-methoxyimidazo[1,2-c]quinazolin-2-yl)(4-isopropylpiperidin-1-yl)methanone]
2.5 | COc1ccc(-c2cn(Cc3cn4c(N)nc5c(OC)cccc5c4n3)nn2)cc1 [Ex-93, 7-methoxy-2-((4-(4-methoxyphenyl)-1H-1,2,3-triazol-1-yl)methyl)imidazo[1,2-c]quinazolin-5-amine]
4.4 | Nc1nc2c(F)cccc2c2nc(CCc3ccccc3)cn12 [Ex-100, 7-fluoro-2-phenethylimidazo[1,2-c]quinazolin-5-amine]
65 | Nc1nc2c(F)cccc2c2nc(Cc3ccc(-c4nnc(CN5CCOCC5)o4)cc3)cn12 [Ex-91, 7-fluoro-2-(4-(5-(morpholinomethyl)-1,3,4-oxadiazol-2-yl)benzyl)imidazo[1,2-c]quinazolin-5-amine]
2.2 | COc1cccc2c1nc(N)n1cc(Cc3ccccc3CN3CCN(c4ccccc4)CC3)nc21 [Ex-67]
11 | COc1cccc2c1nc(N)n1cc(Cc3cccnc3-c3cncnc3)nc21 [Ex-80, 7-methoxy-2-((2-(pyrimidin-5-yl)pyridin-3-yl)methyl)imidazo[1,2-c]quinazolin-5-amine]
49 | COc1cccc2c1nc(N)n1cc(C(=O)N3CCCOCC3)nc21 [Ex-177, (5-amino-7-methoxyimidazo[1,2-c]quinazolin-2-yl)(1,4-oxazepan-4-yl)methanone]
760 | CCn1cc(-c2cccc3c2nc(N)n2cc(Cc4ccccc4)nc32)cn1 [Ex-150, 2-benzyl-7-(1-ethyl-1H-pyrazol-4-yl)imidazo[1,2-c]quinazolin-5-amine]
642 | COc1cccc2nc(N)n3cc(Cc4ccccc4)nc3c12 [Ex-05, 2-benzyl-10-methoxyimidazo[1,2-c]quinazolin-5-amine]
8.1 | Nc1nc2c(F)cccc2c2nc(CN3CCCc4cc(Br)ccc43)cn12 [Ex-125, 2-((6-bromo-3,4-dihydroquinolin-1(2H)-yl)methyl)-7-fluoroimidazo[1,2-c]quinazolin-5-amine]
5.1 | COCCOc1ccc(N2CCN(c3cccc(CNC(=O)c4cn5c(N)nc6c(F)cccc6c5n4)c3)CC2)cc1 [Ex-254, 5-amino-7-fluoro-N-(3-(4-(4-(2-methoxyethoxy)phenyl)piperazin-1-yl)benzyl)imidazo[1,2-c]quinazoline-2-carboxamide]
33 | Nc1nc2c(F)cccc2c2nc(C(=O)N3CCN4CCCC[C@@H]4C3)cn12 [Ex-284, (R)-(5-amino-7-fluoroimidazo[1,2-c]quinazolin-2-yl)(octahydro-2H-pyrido[1,2-a]pyrazin-2-yl)methanone]
220 | Nc1nc2c(F)cccc2c2nc(C(=O)N3CCCC4(CCNC4)C3)cn12 (centres unmarked) [Ex-266, (5-amino-7-fluoroimidazo[1,2-c]quinazolin-2-yl)(2,7-diazaspiro[4.5]decan-7-yl)methanone]
16 | CCCN1CCc2c(Cc3cn4c(N)nc5c(F)cccc5c4n3)cccc2C1 [Ex-56, 7-fluoro-2-((2-propyl-1,2,3,4-tetrahydroisoquinolin-5-yl)melhyl)imidazo-[1,2-c]quinazolin-5-amine]
